Earlier results, collected in patent US12623013B2, “Compounds, systems, and techniques for removal of peripheral amyloid beta peptide with albumin binding competitors” (Fresenius Medical Care Holdings, Inc., priority 2021, dated 2026).
pKd: −log10 of the molar value.

Target: human albumin (Homo sapiens, UniProt P02768)
Settings: read-out: binding constant to human albumin

human albumin, sequence (P02768 25-609): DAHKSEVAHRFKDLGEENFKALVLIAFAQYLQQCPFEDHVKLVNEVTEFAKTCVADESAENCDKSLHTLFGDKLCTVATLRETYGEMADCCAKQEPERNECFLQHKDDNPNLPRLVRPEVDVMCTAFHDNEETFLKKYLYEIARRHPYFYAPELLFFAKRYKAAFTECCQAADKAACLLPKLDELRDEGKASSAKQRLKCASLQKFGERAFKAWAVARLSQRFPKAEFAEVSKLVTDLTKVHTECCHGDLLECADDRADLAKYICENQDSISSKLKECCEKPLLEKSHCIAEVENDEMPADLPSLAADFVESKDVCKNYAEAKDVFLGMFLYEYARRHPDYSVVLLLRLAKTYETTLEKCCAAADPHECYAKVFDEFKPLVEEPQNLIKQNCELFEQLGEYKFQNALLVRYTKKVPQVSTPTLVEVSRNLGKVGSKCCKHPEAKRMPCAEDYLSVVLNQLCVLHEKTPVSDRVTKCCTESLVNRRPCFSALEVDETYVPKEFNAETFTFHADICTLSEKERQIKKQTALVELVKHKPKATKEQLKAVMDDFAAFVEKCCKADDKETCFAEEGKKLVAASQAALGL

## Ac-WWEQDRDWDFDVFGGGTP-NH2 [89D03]
  pKd: ~7.82
